Experimental findings from ChEMBL document CHEMBL3399921, “Novel 2-(2-phenalkyl)-1H-benzo[d]imidazoles as antitubercular agents. Synthesis, biological evaluation and structure-activity relationship” (Bioorg Med Chem, 2015) are described below.

Molecules are shown by their SMILES. In brackets after ≈: the same amount, converted by molar mass.

Data set [1] is described as follows: Selectivity ratio of IC50 for mouse B16F10 cells to MIC for Mycobacterium tuberculosis Spec. 210. The data set is classed as ADME, cell-based, B16-F10.
The nature of data set [2]: Cytotoxicity against HEK cells after 7 days by MTT/SRB assay. The data set is classed as cell-based. To be noted: Homo sapiens, HEK293, 168 h. For orientation: Sulforhodamine B stains cellular protein and so reports cell mass.
Data set [3] deals with Mycobacterium tuberculosis. The data set is described as follows: Tuberculostatic activity against Mycobacterium tuberculosis Spec. 210 by two-fold classical test-tube method. The class given is functional.
Data set [4] can be described thus: Selectivity ratio of IC50 for neonatal HDF cells to MIC for Mycobacterium tuberculosis Spec. 210. The data set is classed as ADME, cell-based. The following applies: human.
The nature of data set [5]: Selectivity ratio of IC50 for neonatal HDF cells to MIC for Mycobacterium tuberculosis Spec. 192. The following applies: human. The data set is classed as ADME, cell-based.
Data set [6] in a line: Selectivity ratio of IC50 for mouse B16F10 cells to MIC for Mycobacterium tuberculosis Spec. 192. The data set is classed as ADME, cell-based, B16-F10.
In data set [7] the test system is Mycobacterium tuberculosis. The data set is described as follows: Tuberculostatic activity against Mycobacterium tuberculosis H37Rv by two-fold classical test-tube method. The class given is functional.
Data set [8] is described as follows: Cytotoxicity against mouse B16F10 cells after 7 days by MTT/SRB assay. The data set is classed as cell-based. To be noted: B16-F10, 168 h.
Data set [9] concerns Mycobacterium tuberculosis. The data set is described as follows: Tuberculostatic activity against Mycobacterium tuberculosis Spec. 192 by two-fold classical test-tube method. The data set is classed as functional.
Data set [10] can be described thus: Cytotoxicity against neonatal HDF cells after 7 days by MTT/SRB assay. The class given is cell-based. The following applies: Homo sapiens, 168 h.
The nature of data set [11]: Selectivity ratio of IC50 for mouse B16F10 cells to MIC for Mycobacterium tuberculosis H37Rv. The class given is ADME, cell-based, B16-F10.
The nature of data set [12]: Selectivity ratio of IC50 for neonatal HDF cells to MIC for Mycobacterium tuberculosis H37Rv. The class given is ADME, cell-based. The following applies: human.

In general, IC50 refers to the concentration that inhibits the measured activity by half. High values mean a need for much substance, low ones inhibition by little substance. What is called MIC is the lowest concentration that inhibits growth of the organism. As for `Cc1cc2nc(CCc3cc(Cl)cc(Cl)c3)[nH]c2cc1C`, the selectivity ratio is 6 in data set [1], more than 11 in [4], more than 11 in data set [5] and 6 in data set [6]. Moreover, the figures for the IC50 in [2], in data set [8] and in data set [10] were 7.8 µM, 28 µM and 58 µM, respectively. Further, the values for the MIC in data set [3], in data set [7] and in data set [9] were 5 µM (≈ 1.6 µg/mL), 2.5 µM (≈ 0.798 µg/mL) and 5 µM (≈ 1.6 µg/mL), respectively.

Consider `Nc1c(NC(=O)CCc2ccccc2)cc(Cl)cc1[N+](=O)[O-]`, for which the MIC in data set [3], in data set [7] and in data set [9] was 320 µM (≈ 102 µg/mL) throughout.

Regarding `Nc1c(NC(=O)/C=C/c2ccccc2)cc(Cl)cc1[N+](=O)[O-]`, the MIC in data set [3], in data set [7] and in data set [9] was 320 µM (≈ 102 µg/mL) each time.

Turning to `Nc1c(NC(=O)CCc2cc(Cl)cc(Cl)c2)cc(Cl)cc1[N+](=O)[O-]`, the selectivity ratio in data set [11] worked out at 7.5; in data set [12], 10; in [5], 10; in data set [6], 7.5. The IC50 is 5.1 µM in data set [2], 59 µM in data set [8] and 80 µM in data set [10]. Moreover, the MIC was determined as 65 µM (≈ 25.3 µg/mL) in data set [3], 8 µM (≈ 3.11 µg/mL) in data set [7] and 8 µM (≈ 3.11 µg/mL) in data set [9].

In the case of `O=[N+]([O-])c1cc(Cl)cc2[nH]c(CCc3ccccc3)nc12`, the minimum inhibitory concentration (MIC) in data set [3], in data set [7] and in data set [9] was 330 µM (≈ 99.6 µg/mL) each time.

Take `O=[N+]([O-])c1cc(Cl)cc2[nH]c(/C=C/c3ccccc3)nc12`: the minimum inhibitory concentration (MIC) was determined as 340 µM (≈ 102 µg/mL) in [3], 170 µM (≈ 51 µg/mL) in data set [7] and 170 µM (≈ 51 µg/mL) in data set [9].

Turning to `O=[N+]([O-])c1cc(Cl)cc2[nH]c(CCc3cc(Cl)cc(Cl)c3)nc12`, the minimum inhibitory concentration (MIC) turned out to be 271 µM (≈ 100 µg/mL) in data set [3], 68 µM (≈ 25.2 µg/mL) in data set [7] and 68 µM (≈ 25.2 µg/mL) in data set [9].

With `c1ccc(CCc2nc3cc4ccccc4cc3[nH]2)cc1`, the MIC in [3], in [7] and in data set [9] was 370 µM (≈ 101 µg/mL) in each case.

For the molecule `C(=C\c1nc2cc3ccccc3cc2[nH]1)/c1ccccc1`, the MIC in data set [3], in data set [7] and in data set [9] was 93 µM (≈ 25.1 µg/mL) throughout.

For `Clc1cc(Cl)cc(CCc2nc3cc4ccccc4cc3[nH]2)c1`, the minimal inhibitory concentration (MIC) in [3], in data set [7] and in [9] was 18 µM (≈ 6.14 µg/mL) each time.

Turning to `Cc1cc2nc(CCc3ccccc3)[nH]c2cc1C`, the IC50 in [2] worked out at 2.5 µM; in data set [8], 3.9 µM; in [10] it was 7.9 µM. In addition, the MIC in data set [3], in data set [7] and in data set [9] was 6.3 µM (≈ 1.58 µg/mL) each time.

For `Cc1cc2nc(/C=C/c3ccccc3)[nH]c2cc1C`, the minimal inhibitory concentration (MIC) is 25 µM (≈ 6.21 µg/mL) in [3], 25 µM (≈ 6.21 µg/mL) in [7] and 13 µM (≈ 3.23 µg/mL) in data set [9].

Take `Fc1ccc2[nH]c(CCc3ccccc3)nc2c1`: the figures for the MIC in data set [3], in data set [7] and in data set [9] were 208 µM (≈ 50 µg/mL), 104 µM (≈ 25 µg/mL) and 208 µM (≈ 50 µg/mL), respectively.

As to `Fc1ccc2[nH]c(/C=C/c3ccccc3)nc2c1`, the MIC in [3] is 105 µM (≈ 25 µg/mL); in data set [7], 210 µM (≈ 50 µg/mL); in data set [9], 210 µM (≈ 50 µg/mL).

Take `Fc1ccc2[nH]c(CCc3cc(Cl)cc(Cl)c3)nc2c1`: the minimum inhibitory concentration (MIC) in data set [3], in data set [7] and in [9] was 320 µM (≈ 98.9 µg/mL) each time.

Consider `Cc1cc2nc(CCc3ccccc3)n(S(C)(=O)=O)c2cc1C`, for which the minimum inhibitory concentration (MIC) in data set [3], in [7] and in data set [9] was 76 µM (≈ 25 µg/mL) throughout.

Regarding `Cc1cc2nc(/C=C/c3ccccc3)n(S(C)(=O)=O)c2cc1C`, the minimum inhibitory concentration (MIC) in data set [3], in [7] and in data set [9] was 310 µM (≈ 101 µg/mL) throughout.

Turning to `Cc1cc2nc(CCc3cc(Cl)cc(Cl)c3)n(S(C)(=O)=O)c2cc1C`, the MIC in data set [3] was found to be 32 µM (≈ 12.7 µg/mL); in data set [7] it was 32 µM (≈ 12.7 µg/mL); in [9], 63 µM (≈ 25 µg/mL).

Regarding `CS(=O)(=O)n1c(CCc2ccccc2)nc2cc(F)ccc21`, the MIC in [3], in data set [7] and in data set [9] was 314 µM (≈ 100 µg/mL) each time.

Take `CS(=O)(=O)n1c(/C=C/c2ccccc2)nc2cc(F)ccc21`: the minimum inhibitory concentration (MIC) in [3], in data set [7] and in data set [9] was 158 µM (≈ 50 µg/mL) throughout.

As for `CS(=O)(=O)n1c(/C=C/c2cc(Cl)cc(Cl)c2)nc2cc(F)ccc21`, the minimum inhibitory concentration (MIC) is 130 µM (≈ 50.1 µg/mL) in data set [3], 130 µM (≈ 50.1 µg/mL) in [7] and 259 µM (≈ 99.8 µg/mL) in data set [9].

For the molecule `Cc1cc2nc(CCc3ccccc3)n(S(=O)(=O)c3ccccc3)c2cc1C`, the minimal inhibitory concentration (MIC) stood at 128 µM (≈ 50 µg/mL) in data set [3], 128 µM (≈ 50 µg/mL) in data set [7] and 64 µM (≈ 25 µg/mL) in data set [9].

As to `Cc1cc2nc(/C=C/c3ccccc3)n(S(=O)(=O)c3ccccc3)c2cc1C`, the minimum inhibitory concentration (MIC) in data set [3], in data set [7] and in [9] was 258 µM (≈ 100 µg/mL) in each case.

In the case of `Cc1cc2nc(CCc3cc(Cl)cc(Cl)c3)n(S(=O)(=O)c3ccccc3)c2cc1C`, the MIC in data set [3], in data set [7] and in data set [9] was 55 µM (≈ 25.3 µg/mL) throughout.

For `O=S(=O)(c1ccccc1)n1c(CCc2ccccc2)nc2cc(F)ccc21`, the MIC in [3], in [7] and in data set [9] was 263 µM (≈ 100 µg/mL) each time.

As for `O=S(=O)(c1ccccc1)n1c(/C=C/c2ccccc2)nc2cc(F)ccc21`, the figures for the MIC in [3], in data set [7] and in [9] were 264 µM (≈ 99.9 µg/mL), 132 µM (≈ 50 µg/mL) and 132 µM (≈ 50 µg/mL), respectively.

As for `O=S(=O)(c1ccccc1)n1c(CCc2cc(Cl)cc(Cl)c2)nc2cc(F)ccc21`, the minimal inhibitory concentration (MIC) is 56 µM (≈ 25.2 µg/mL) in [3], 56 µM (≈ 25.2 µg/mL) in data set [7] and 112 µM (≈ 50.3 µg/mL) in data set [9].

`NNC(=O)c1ccncc1` [ISONIAZID]: the values for the MIC in data set [3], in [7] and in [9] were 182 µM (≈ 25 µg/mL), 91 µM (≈ 12.5 µg/mL) and 91 µM (≈ 12.5 µg/mL), respectively.

Consider `NC(=O)c1cnccn1` [PYRAZINAMIDE], for which the MIC was found to be 3250 µM (≈ 400 µg/mL) in data set [3], 203 µM (≈ 25 µg/mL) in data set [7] and 203 µM (≈ 25 µg/mL) in data set [9].

Turning to `CO[C@H]1/C=C/O[C@@]2(C)Oc3c(C)c(O)c4c(O)c(c(/C=N/N5CCN(C)CC5)c(O)c4c3C2=O)NC(=O)/C(C)=C\C=C\[C@H](C)[C@H](O)[C@@H](C)[C@@H](O)[C@@H](C)[C@H](OC(C)=O)[C@@H]1C` [RIFAMPIN], the minimum inhibitory concentration (MIC) in data set [3] is 2.8 µM (≈ 2.3 µg/mL); in [7], 1.4 µM (≈ 1.15 µg/mL); in data set [9] it was 1.4 µM (≈ 1.15 µg/mL).
